Remaining binding data for one compound are collected here from publication PMC8799717, “Pharmacological targeting PIKfyve and tubulin as an effective treatment strategy for double-hit lymphoma” (Cell Death Discovery, 2022).

Targets include AKT1 (Homo sapiens, UniProt P31749); AXL (Homo sapiens, UniProt P30530); BLK (Homo sapiens, UniProt P51451); CAMKK1 (Homo sapiens, UniProt Q8N5S9); CHEK1 (Homo sapiens, UniProt O14757); CHEK2 (Homo sapiens, UniProt O96017); CLK3 (Homo sapiens, UniProt P49761); CSNK1A1 (Homo sapiens, UniProt P48729); EGFR(G719C) (Homo sapiens, UniProt P00533, G719C); EGFR(L747-T751del,Sins) (Homo sapiens, UniProt P00533, DEL747-750/T751S); EPHA1 (Homo sapiens, UniProt P21709); EPHB4 (Homo sapiens, UniProt P54760); GRK4 (Homo sapiens, UniProt P32298); GSK3A (Homo sapiens, UniProt P49840); MST1R (Homo sapiens, UniProt Q04912); PIK3CB (Homo sapiens, UniProt P42338); PRKD2 (Homo sapiens, UniProt Q9BZL6); TLK2 (Homo sapiens, UniProt Q86UE8); TNNI3K (Homo sapiens, UniProt Q59H18); TRPM6 (Homo sapiens, UniProt Q9BX84).

Assay in all cases: biochemical
What all share (parameters): KINOMEscan active-site-directed competition binding panel, 468 kinases, percent of DMSO control at 1 uM
Holding throughout (settings): KINOMEscan binding, percent of DMSO control; read-out: Ctrl%

A further assay concerns the target T1, ASK1 (Homo sapiens, UniProt Q99683).
T1 construct: gene MAP3K5

A further assay concerns the target T2, DCAMKL1 (Homo sapiens, UniProt O15075).
T2 construct: gene DCLK1

For the next assay, the target named is T3, DRAK1 (Homo sapiens, UniProt Q9UEE5).
T3 construct: gene STK17A
T3 sequence (Q9UEE5 whole entry): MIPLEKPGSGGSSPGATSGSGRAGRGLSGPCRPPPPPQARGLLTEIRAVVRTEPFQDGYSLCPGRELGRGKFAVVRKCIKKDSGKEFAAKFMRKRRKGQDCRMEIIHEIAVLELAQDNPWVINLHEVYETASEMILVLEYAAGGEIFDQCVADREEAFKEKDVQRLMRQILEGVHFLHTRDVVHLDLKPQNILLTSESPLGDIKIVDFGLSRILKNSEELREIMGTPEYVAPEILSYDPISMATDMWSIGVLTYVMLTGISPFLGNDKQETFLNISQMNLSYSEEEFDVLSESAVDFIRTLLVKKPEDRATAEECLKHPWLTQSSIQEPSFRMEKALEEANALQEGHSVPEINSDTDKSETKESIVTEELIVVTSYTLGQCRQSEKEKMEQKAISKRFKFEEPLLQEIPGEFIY

The target in assay [1] is T4, RPS6KA4(Kin.Dom.1-N-terminal) (Homo sapiens, UniProt O75676).
T4 construct: Kin.Dom.1-N-terminal

GRK4, sequence (P32298 whole entry): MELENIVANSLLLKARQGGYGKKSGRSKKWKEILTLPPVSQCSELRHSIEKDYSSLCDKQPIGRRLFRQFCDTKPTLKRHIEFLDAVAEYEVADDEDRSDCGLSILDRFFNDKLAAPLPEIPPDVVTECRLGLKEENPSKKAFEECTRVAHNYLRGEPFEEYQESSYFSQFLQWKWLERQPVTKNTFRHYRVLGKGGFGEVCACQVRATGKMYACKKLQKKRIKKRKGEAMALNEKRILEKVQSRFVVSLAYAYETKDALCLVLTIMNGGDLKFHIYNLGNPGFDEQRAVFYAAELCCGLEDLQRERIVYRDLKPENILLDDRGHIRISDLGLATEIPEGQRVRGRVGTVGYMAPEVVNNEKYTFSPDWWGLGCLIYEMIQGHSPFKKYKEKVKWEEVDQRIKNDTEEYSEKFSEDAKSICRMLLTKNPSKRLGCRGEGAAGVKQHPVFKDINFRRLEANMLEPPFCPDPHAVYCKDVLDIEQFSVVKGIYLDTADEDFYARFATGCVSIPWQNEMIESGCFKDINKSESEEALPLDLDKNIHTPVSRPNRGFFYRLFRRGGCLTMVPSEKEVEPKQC
TLK2, sequence (Q86UE8 whole entry): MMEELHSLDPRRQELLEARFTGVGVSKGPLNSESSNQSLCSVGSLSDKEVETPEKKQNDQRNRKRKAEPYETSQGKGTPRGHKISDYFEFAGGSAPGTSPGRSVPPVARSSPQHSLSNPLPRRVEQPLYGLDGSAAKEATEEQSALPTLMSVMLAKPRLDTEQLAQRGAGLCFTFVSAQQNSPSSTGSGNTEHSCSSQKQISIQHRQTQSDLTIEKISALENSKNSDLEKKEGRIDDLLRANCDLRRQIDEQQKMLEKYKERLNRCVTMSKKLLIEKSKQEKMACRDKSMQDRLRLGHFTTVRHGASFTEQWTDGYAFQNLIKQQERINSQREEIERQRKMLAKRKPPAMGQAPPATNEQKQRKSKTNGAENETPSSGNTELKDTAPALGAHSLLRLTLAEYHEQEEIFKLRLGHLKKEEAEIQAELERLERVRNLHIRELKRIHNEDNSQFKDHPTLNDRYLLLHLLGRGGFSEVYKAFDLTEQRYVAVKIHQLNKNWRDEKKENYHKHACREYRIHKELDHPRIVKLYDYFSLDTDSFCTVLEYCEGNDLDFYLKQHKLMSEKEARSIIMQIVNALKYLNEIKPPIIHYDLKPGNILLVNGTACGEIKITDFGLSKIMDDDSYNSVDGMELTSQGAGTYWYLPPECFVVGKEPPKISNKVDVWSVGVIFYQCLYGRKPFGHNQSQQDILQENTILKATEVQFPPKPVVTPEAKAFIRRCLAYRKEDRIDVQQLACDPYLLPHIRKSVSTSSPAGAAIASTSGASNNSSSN
PRKD2, sequence (Q9BZL6 whole entry): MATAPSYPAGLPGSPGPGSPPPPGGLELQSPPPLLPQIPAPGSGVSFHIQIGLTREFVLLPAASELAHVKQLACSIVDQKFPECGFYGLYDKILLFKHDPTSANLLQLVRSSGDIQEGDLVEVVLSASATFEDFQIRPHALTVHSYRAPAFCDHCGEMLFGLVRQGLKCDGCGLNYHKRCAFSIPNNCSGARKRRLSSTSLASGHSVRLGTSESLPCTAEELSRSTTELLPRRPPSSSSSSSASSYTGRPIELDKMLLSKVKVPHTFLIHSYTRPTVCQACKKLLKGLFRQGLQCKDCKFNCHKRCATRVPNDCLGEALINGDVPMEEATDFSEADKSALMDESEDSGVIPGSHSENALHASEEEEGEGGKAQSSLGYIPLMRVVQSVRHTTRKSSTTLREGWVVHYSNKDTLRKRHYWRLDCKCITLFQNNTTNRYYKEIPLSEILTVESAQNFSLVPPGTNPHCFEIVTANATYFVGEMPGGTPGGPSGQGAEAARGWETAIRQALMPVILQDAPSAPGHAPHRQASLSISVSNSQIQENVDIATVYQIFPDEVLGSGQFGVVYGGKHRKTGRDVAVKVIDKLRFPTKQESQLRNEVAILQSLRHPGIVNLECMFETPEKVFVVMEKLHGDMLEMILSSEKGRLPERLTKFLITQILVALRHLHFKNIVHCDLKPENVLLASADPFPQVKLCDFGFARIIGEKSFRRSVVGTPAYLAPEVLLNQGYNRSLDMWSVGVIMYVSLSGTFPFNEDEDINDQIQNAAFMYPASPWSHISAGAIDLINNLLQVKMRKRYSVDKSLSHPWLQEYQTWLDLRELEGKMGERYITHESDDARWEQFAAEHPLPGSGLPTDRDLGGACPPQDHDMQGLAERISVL
CHEK2, sequence (O96017 whole entry): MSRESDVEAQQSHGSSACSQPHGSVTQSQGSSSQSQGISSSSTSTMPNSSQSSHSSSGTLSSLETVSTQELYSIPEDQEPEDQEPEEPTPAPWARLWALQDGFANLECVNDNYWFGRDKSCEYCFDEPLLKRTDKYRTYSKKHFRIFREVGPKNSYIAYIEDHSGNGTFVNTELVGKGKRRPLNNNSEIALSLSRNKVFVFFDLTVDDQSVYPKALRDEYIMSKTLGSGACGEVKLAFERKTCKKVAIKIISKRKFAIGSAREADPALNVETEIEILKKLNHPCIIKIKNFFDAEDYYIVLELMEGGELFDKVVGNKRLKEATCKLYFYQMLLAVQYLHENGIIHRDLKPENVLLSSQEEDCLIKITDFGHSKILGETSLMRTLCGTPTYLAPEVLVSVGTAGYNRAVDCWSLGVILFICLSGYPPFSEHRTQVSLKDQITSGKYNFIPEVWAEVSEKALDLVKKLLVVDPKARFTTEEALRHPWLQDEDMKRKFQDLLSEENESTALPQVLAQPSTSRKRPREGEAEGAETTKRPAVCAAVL
EPHB4, sequence (P54760 whole entry): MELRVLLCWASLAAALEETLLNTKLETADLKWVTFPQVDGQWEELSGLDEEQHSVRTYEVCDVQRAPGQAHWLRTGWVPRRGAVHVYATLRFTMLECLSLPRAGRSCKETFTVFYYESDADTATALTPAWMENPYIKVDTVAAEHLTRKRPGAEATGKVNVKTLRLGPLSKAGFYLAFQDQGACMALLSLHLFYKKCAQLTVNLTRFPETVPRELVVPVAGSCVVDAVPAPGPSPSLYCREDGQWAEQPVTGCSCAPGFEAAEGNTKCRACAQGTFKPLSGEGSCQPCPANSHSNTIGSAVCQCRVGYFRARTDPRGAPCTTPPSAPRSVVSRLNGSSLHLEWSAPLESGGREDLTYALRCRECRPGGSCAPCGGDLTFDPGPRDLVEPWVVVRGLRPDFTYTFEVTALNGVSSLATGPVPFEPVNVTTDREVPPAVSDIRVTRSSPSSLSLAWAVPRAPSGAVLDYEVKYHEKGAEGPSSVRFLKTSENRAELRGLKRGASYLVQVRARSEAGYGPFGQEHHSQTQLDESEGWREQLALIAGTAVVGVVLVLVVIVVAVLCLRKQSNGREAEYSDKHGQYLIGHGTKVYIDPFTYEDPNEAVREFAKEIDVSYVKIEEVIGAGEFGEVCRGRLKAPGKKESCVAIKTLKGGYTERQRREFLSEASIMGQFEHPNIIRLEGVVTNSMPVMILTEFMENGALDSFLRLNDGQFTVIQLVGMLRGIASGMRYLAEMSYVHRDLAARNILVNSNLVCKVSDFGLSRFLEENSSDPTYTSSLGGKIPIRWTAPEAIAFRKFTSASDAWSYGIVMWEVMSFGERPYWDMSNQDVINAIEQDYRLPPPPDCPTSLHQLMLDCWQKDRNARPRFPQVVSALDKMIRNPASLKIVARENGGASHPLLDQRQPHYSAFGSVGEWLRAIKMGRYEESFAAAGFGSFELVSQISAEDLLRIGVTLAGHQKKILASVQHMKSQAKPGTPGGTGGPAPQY
GSK3A, sequence (P49840 whole entry): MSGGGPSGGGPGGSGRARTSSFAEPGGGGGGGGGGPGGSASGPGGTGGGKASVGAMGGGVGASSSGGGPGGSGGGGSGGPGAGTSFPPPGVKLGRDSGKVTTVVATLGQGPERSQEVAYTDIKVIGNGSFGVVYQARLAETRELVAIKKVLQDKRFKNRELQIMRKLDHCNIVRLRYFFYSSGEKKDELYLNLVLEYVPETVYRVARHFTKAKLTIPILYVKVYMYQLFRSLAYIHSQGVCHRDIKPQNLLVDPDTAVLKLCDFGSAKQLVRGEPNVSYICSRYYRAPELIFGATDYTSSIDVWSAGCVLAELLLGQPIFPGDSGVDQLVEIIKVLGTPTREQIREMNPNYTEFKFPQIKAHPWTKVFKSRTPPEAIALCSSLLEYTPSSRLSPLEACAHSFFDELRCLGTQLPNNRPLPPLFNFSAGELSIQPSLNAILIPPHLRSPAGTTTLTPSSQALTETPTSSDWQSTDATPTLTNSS
CSNK1A1, sequence (P48729 whole entry): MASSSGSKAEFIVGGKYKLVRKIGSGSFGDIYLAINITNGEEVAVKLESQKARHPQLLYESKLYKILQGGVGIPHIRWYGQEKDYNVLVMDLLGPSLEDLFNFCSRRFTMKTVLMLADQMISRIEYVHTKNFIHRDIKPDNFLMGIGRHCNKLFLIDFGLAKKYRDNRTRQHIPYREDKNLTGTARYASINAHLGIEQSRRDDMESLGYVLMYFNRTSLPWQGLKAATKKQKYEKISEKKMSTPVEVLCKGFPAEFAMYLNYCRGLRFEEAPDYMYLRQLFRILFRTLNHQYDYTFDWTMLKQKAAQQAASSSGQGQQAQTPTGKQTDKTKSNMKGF

Regarding `Cc1ccc(NC(=O)c2cccc(C(F)(F)F)c2)cc1Nc1cc(-c2cccnc2)nc2[nH]ccc12` [HZX-02-059], the remaining binding at 1 µM turned out to be 99% at AKT1; 93% on ASK1; 90% on AXL; 91% on BLK; 97% at CAMKK1; 88% on CHEK1. Also, the remaining binding at 1 µM is 61% on CHEK2; 82% at CLK3; 77% on CSNK1A1; 93% at DCAMKL1; 83% on DRAK1; 96% at EGFR(G719C). Also, the remaining binding at 1 µM on EGFR(L747-T751del,Sins) was 77%; at EPHA1, 78%; on EPHB4, 30%; at GRK4 it was 83%; at GSK3A, 98%; on MST1R, 89%. In addition, the remaining binding at 1 µM was found to be 74% at PIK3CB; 92% at PRKD2; 93% in assay [1]; 89% at TLK2; 6.3% on TNNI3K; 50% at TRPM6.
